Source: patent US6271416A, “Quinolinone derivative, method for preparing the same, and anti-allergic agent” (Dainippon Ink and Chemicals, Inc., priority 1997, dated 2001)

Test system: homologous passive cutaneous anaphylaxis (PCA) reaction
Test: Effect on homologous passive cutaneous anaphylaxis (PCA) reaction in rats
Format: in vivo, rat (male wistar)
Details: Rattus norvegicus, 1 hour before induction; for inhibition in vivo at 100 mg/kg: test compounds, 100 mg/kg oral
Procedure: Effect on homologous passive cutaneous anaphylaxis (PCA) reaction in rats
This experimental animal model is caused by immediate type allergic reaction, namely, antigen-antibody reaction. In the following, the method of this pharmacological test will be explained.
Method: Male wistar rats (9 weeks old) were intradermally administered 0.05 ml of anti-serum against dinitrophenylated ascaris (DNP-As) into two sites on the shaved dorsal skin. 48 hours later, quinolinone derivatives (test compounds) suspended in 0.5% methylcellulose (MC) were given orally at a dose of 100 mg/kg to the animals. 1 hour after administration of Test compounds, the animals were induced anaphylaxis by injection of saline (1 ml) dissolving 1 mg of trinitrophenylated ascaris (TNP-As) and 5 mg of Evans Blue into the tail vein of the animals. 30 minutes after induction of anaphylaxis, animals were anesthetized by ether and killed by bleeding, and were flayed dorsal skin. The leakage of dye was assessed by measuring the diameter (mean of shortest and longest diameter) of the blue spot on the inside surface of dorsal skin. As vehicle control group, only 0.5% MC solution was administered orally, and as positive control group, Tranilast suspended in 0.5% MC were administered orally at a dose of 200 mg/kg to the animals with the same method as the test compounds groups. Each experimental group consisted of 5 rats. In the conditions of this experinent, it was considered that the compound, which inhibited PCA reaction by over forty (40) percent against that in vehicle control group, was evidently effective for immediate type allergy.
Inhibition (%)=(A-B)/A×100 (Equation 1)
A: leakage of dye in vehicle control group
B: leakage of dye in test compound group or positive control group

SMILES: CCOc1c(O)c2c(N)cccc2n(C)c1=O [Compound 23, 5-amino-3-ethoxy-4-hydroxy-1-methyl-2(1H)-quinolinone]
- inhibition in vivo at 100 mg/kg: 40%

SMILES: Cn1c(=O)c(Oc2ccccc2)c(O)c2cc(N)ccc21 [Compound 24, 6-amino-3-phenoxy-4-hydroxy-1-methyl-2(1H)-quinolinone]
- inhibition in vivo at 100 mg/kg: 42%

SMILES: CC(=O)Nc1ccc2c(c1)c(O)c(Oc1ccccc1)c(=O)n2C [Compound 26, 6-acetylamino-3-phenoxy-4-hydroxy-1-methyl-2(1H)-quinolinone]
- inhibition in vivo at 100 mg/kg: 39%

SMILES: CCCCCCCCn1c(=O)c(Oc2ccccc2)c(O)c2cc(-c3ccccc3)ccc21 [Compound 34, 6-phenyl-3-phenoxy-4-hydroxy-1-octyl-2(1H)-quinolinone]
- inhibition in vivo at 100 mg/kg: 37%

SMILES: COc1c(O)c2c(O)cc(O)cc2n(C)c1=O [Compound 36, 5,7-dihydroxy-3-methoxy-4-hydroxy-1-methyl-2(1H)-quinolinone]
- inhibition in vivo at 100 mg/kg: 45%

SMILES: CCCCOc1c(O)c2c(C(=O)OCC)cccc2n(C)c1=O [Compound 38, 5-ethoxycarbonyl-3-butoxy-4-hydroxy-1-methyl-2(1H)-quinolinone]
- inhibition in vivo at 100 mg/kg: 45%

SMILES: CCOc1c(O)c2c(N)cccc2n(C/C=C(\C)CCC=C(C)C)c1=O [Compound 44, 5-amino-3-ethoxy-4-hydroxy-1-geranyl-2(1H)-quinolinone]
- inhibition in vivo at 100 mg/kg: 42%

SMILES: CC(C)=CCC/C(C)=C/COc1c(O)c2cccc(N)c2n(C)c1=O [Compound 45, 8-amino-3-geranyloxy-4-hydroxy-1-methyl-2(1H)-quinolinone]
- inhibition in vivo at 100 mg/kg: 46%

SMILES: CCCCCCCCCCNc1ccc2c(c1)c(O)c(OC)c(=O)n2C [Compound 49, 6-decylamino-3-methoxy-4-hydroxy-1-methyl-2(1H)-quinolinone]
- inhibition in vivo at 100 mg/kg: 50%

SMILES: COc1c(O)c2cc(NC/C=C(\C)CCC=C(C)C)ccc2n(C)c1=O [Compound 52, 6-geranylamino-3-methoxy-4-hydroxy-1-methyl-2(1H)-quinolinone]
- inhibition in vivo at 100 mg/kg: 49%

SMILES: CCCCNc1cccc2c(O)c(OC/C=C(\C)CCC=C(C)C)c(=O)n(C)c12 [Compound 53, 8-butylamino-3-geranyloxy-4-hydroxy-1-methyl-2(1H)-quinolinone]
- inhibition in vivo at 100 mg/kg: 45%

SMILES: CCCCCCCCCCOc1ccc2c(c1)c(O)c(OC)c(=O)n2C [Compound 54, 6-decyloxy-3-methoxy-4-hydroxy-1-methyl-2(1H)-quinolinone]
- inhibition in vivo at 100 mg/kg: 50%

SMILES: COc1c(O)c2cc(C/C=C(\C)CCC=C(C)C)ccc2n(C)c1=O [Compound 61, 6-geranyl-3-methoxy-4-hydroxy-1-methyl-2(1H)-quinolinone]
- inhibition in vivo at 100 mg/kg: 42%

SMILES: CCCCCCCCCCOC(=O)c1cccc2c1c(O)c(OCCCC)c(=O)n2C [Compound 68, 5-decyloxycarbonyl-3-butoxy-4-hydroxy-1-methyl-2(1H)-quinolinone]
- inhibition in vivo at 100 mg/kg: 49%

SMILES: CCCCCCCCOc1c(O)c2ccc(NC(C)=O)cc2n(C)c1=O [Compound 76, 7-acetylamino-3-octyloxy-4-hydroxy-1-methyl-2(1H)-quinolinone]
- inhibition in vivo at 100 mg/kg: 51%

SMILES: CCCCCCCCOc1c(O)c2c(NC(=O)/C=C/c3cc(OC)c(O)c(OC)c3)cccc2n(C)c1=O [Compound 77, 5-[(3,5-dimethoxy-4-hydroxycinnamoyl)amino]-3-octyloxy-4-hydroxy-1-methyl-2(1H)-quinolinone]
- inhibition in vivo at 100 mg/kg: 55%

SMILES: CCCCCCCCOc1c(O)c2cc(NC(=O)/C=C/c3cc(OC)c(O)c(OC)c3)ccc2n(C)c1=O [Compound 78, 6-[(3,5-dimethoxy-4-hydroxycinnamoyl)amino]-3-octyloxy-4-hydroxy-1-methyl-2(1H)-quinolinone]
- inhibition in vivo at 100 mg/kg: 50%

SMILES: CCCCCCCCOc1c(O)c2cccc(NC(=O)/C=C/c3cc(OC)c(O)c(OC)c3)c2n(C)c1=O [Compound 79, 8-[(3,5-dimethoxy-4-hydroxycinnamoyl)amino]-3-octyloxy-4-hydroxy-1-methyl-2(1H)-quinolinone]
- inhibition in vivo at 100 mg/kg: 49%

SMILES: CCCCOc1c(O)c2cc(C(=O)OCC)ccc2n(C)c1=O [Compound 80, 6-ethoxycarbonyl-3-butoxy-4-hydroxy-1-methyl-2(1H)-quinolinone]
- inhibition in vivo at 100 mg/kg: 41%

SMILES: CCCCOc1c(O)c2cccc(C(=O)Oc3ccccc3)c2n(C)c1=O [Compound 83, 8-phenoxycarbonyl-3-butoxy-4-hydroxy-1-methyl-2(1H)-quinolinone]
- inhibition in vivo at 100 mg/kg: 42%

SMILES: CCCCCCCCOc1cccc2c1c(O)c(OC)c(=O)n2C [Compound 84, 5-octyloxy-3-methoxy-4-hydroxy-1-methyl-2(1H)-quinolinone]
- inhibition in vivo at 100 mg/kg: 49%

SMILES: CCCCCCOc1c(O)c2cccc(OCCCCCC)c2n(C)c1=O [Compound 85, 3,8-dihexyloxy-4-hydroxy-1-methyl-2(1H)-quinolinone]
- inhibition in vivo at 100 mg/kg: 50%

SMILES: CCCCCCCCOc1c(O)c2cccc(NC)c2n(C)c1=O [Compound 86, 8-methylamino-3-octyloxy-4-hydroxy-1-methyl-2(1H)-quinolinone]
- inhibition in vivo at 100 mg/kg: 53%

SMILES: COc1ccc(/C=C/C(=O)Nc2ccccc2C(=O)O)cc1OC [Tranilast, reference compound]
- inhibition in vivo at 200 mg/kg (positive control, 200 mg/kg oral): 52%
